From US7709494B2, “4,5-diphenyl-pyrimidinyl-oxy or -mercapto substituted carboxylic acids, method for the production and use thereof as medicaments” (Sanofi-Aventis, priority 2006, dated 2010)

Each molecule was assayed against T1, GPCR GPR40 (Homo sapiens, UniProt O14842) (assay: In vitro FLIPR assay with recombinant cells which express the GPCR GPR40 (agonist-induced intracellular Ca2+ change)). Details: recombinant HEK293 cells expressing GPR40; 100 μM test substance; percentage change relative to control (0%: no test substance; 100%: 10 μM reference agonist linoleic acid).
T1 construct: expressed in transfected cells; host or cells: HEK293
T1 sequence (O14842 whole entry): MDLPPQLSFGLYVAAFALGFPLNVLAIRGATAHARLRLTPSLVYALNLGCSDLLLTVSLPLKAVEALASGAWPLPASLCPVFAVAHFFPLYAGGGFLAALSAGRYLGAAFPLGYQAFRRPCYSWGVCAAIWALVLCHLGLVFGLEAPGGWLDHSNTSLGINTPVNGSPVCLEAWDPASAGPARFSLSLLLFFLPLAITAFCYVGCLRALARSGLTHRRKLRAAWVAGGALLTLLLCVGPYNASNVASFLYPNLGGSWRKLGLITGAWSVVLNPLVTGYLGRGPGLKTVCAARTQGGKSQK
Type: cell-based
Method: In vitro FLIPR assay with recombinant cells which express the GPCR GPR40
Function-testing assays were carried out by means of the FLIPR technique (“Fluorescence Imaging Plate Reader”, Molecular Devices Corp.). For this purpose, agonist-induced changes in the intracellular concentration of Ca^2+ in recombinant HEK293 cells which expressed the GPCR. GPR40 were determined.
For the investigations, cells were seeded in 96-well microtiter plates (60 000 cells/well) and allowed to grow overnight. The medium was removed and the cells were incubated in buffer which contained the fluorescent dye fluo-4. After this loading with dye, the cells were washed, test substance was added, and changes in the intracellular Ca^2+ concentration were measured in the FLIPR instrument. Results have been presented as percentage change relative to the control (0%: no test substance added; 100%: 10 μM reference agonist linoleic acid added).
In the case of `O=C(O)CC12CC3CC(C1)CC(Sc1ncc(-c4ccccc4)c(-c4ccccc4)n1)(C3)C2` [Example 5, [3-(4,5-Diphenylpyriidin-2-ylsulfanyl)adamantan-1-yl]acetic acid], the “% activation @ 100 μM” value is reported as 64%.
In the case of `O=C(O)[C@H]1CCC[C@@H](COc2ncc(-c3ccccc3)c(-c3ccccc3)n2)C1` [Example 1, (1S,3R)-3-(4,5-Diphenylpyrimidin-2-yloxymethyl)cyclohexanecarboxylic acid], the “% activation @ 100 μM” value is reported as 74%.
With `O=C(O)C1CC1CCCCCSc1ncc(-c2ccccc2)c(-c2ccccc2)n1` (stereo not drawn) [Example 7, 2-[5-(4,5-Diphenylpyrimidin-2-ylsulfanyl)pentyl]cyclopropanecarboxylic acid] the “% activation @ 100 μM” value was 101%.
`O=C(O)[C@H]1CC[C@@H](COc2ncc(-c3ccccc3)c(-c3ccccc3)n2)C1` (relative stereo) [Example 3, cis-3-(4,5-Diphenylpyrimidin-2-yloxymethyl)cyclopentanecarboxylic acid] was tested, and the “% activation @ 100 μM” value was 76%.
With `O=C(O)C1CC1CCCCOc1ncc(-c2ccccc2)c(-c2ccccc2)n1` (stereo not drawn) [Example 9, 2-[4-(4,5-Diphenylpyrimidin-2-yloxy)butyl]cyclopropanecarboxylic acid] the “% activation @ 100 μM” value was 101%.
In the case of “cis-(4,5-Diphenylpyrimidin-2-yloxymethyl)cyclohexanecarboxylic acid [Example 2]”, the “% activation @ 100 μM” value is reported as 91%.
`O=C(O)C1CCC(COc2ncc(-c3ccccc3)c(-c3ccccc3)n2)CC1` (mixture of isomers) [Example 4, Cis/trans-4-(4,5-diphenylpyrimidin-2-yloxymethyl)cyclohexanecarboxylic cid] was tested, and the “% activation @ 100 μM” value was 96%.
In the case of `CCC(CCC1CC1C(=O)O)Oc1ncc(-c2ccccc2)c(-c2ccccc2)n1` (stereo not drawn) [Example 10, 2-[3-(4,5-Diphenylpyrimidin-2-yloxy)pentyl]cyclopropanecarboxylic acid], the “% activation @ 100 μM” value is reported as 5%.
In the case of `O=C(O)[C@H]1CCCC(Oc2ncc(-c3ccccc3)c(-c3ccccc3)n2)C1` (stereo partly drawn) [Example 6, (1S)-3-(4,5-Diphenylpyrimidin-2-yloxy)cyclohexanecarboxylic acid], the “% activation @ 100 μM” value is reported as 66%.
